Test results published in ChEMBL document CHEMBL5226338, “Molecular hybrids: A five-year survey on structures of multiple targeted hybrids of protein kinase inhibitors for cancer therapy” (Eur J Med Chem, 2021).
pIC50: −log10 of the molar value.

Columns and labels:
[1] = biological target: T1, Epidermal growth factor receptor (Homo sapiens, UniProt P00533); assay: Inhibition of EGFR (unknown origin)
K562 [2] = assay: Cytotoxicity against human K562 cells assessed as inhibition of cell growth; assay type: functional, cell-based
K562 [3] = assay: Cytotoxicity against imatinib-resistant human K562 cells assessed as inhibition of cell growth; assay type: functional, cell-based
Tubulin = assay: Inhibition of MAP-rich tubulin (unknown origin) polymerization; assay type: protein-complex assay, Homo sapiens
[4] = biological target: T1, Epidermal growth factor receptor; assay: Inhibition of GST-fused EGFR (unknown origin) in presence of ATP by microplate reader analysis
MDA-MB-231 = assay: Cytotoxicity against human MDA-MB-231 cells assessed as inhibition of cell growth incubated for 24 hrs by MTT assay; assay type: functional, cell-based; details: MDA-MB-231, 24 h
MCF7 = assay: Cytotoxicity against human MCF7 cells assessed as inhibition of cell growth incubated for 24 hrs by MTT assay; assay type: functional, cell-based; details: MCF7, 24 h
[5] = biological target: Tubulin beta (Homo sapiens) (UniProt P68371+Q9H4B7+Q13509+P04350+Q3ZCM7+P07437+Q13885+Q9BVA1+Q9BUF5+A6NNZ2); assay: Inhibition of beta-tubulin polymerization in human HepG2 cells using TMB substrate by spectrophotometry analysis relative to control; assay type: cell-based; details: concentration not given here
[6] = biological target: T2, Vascular endothelial growth factor receptor 2 (Homo sapiens, UniProt P35968); assay: Inhibition of human VEGFR2 using TMB as substrate by ELISA
T2 sequence (P35968 whole entry): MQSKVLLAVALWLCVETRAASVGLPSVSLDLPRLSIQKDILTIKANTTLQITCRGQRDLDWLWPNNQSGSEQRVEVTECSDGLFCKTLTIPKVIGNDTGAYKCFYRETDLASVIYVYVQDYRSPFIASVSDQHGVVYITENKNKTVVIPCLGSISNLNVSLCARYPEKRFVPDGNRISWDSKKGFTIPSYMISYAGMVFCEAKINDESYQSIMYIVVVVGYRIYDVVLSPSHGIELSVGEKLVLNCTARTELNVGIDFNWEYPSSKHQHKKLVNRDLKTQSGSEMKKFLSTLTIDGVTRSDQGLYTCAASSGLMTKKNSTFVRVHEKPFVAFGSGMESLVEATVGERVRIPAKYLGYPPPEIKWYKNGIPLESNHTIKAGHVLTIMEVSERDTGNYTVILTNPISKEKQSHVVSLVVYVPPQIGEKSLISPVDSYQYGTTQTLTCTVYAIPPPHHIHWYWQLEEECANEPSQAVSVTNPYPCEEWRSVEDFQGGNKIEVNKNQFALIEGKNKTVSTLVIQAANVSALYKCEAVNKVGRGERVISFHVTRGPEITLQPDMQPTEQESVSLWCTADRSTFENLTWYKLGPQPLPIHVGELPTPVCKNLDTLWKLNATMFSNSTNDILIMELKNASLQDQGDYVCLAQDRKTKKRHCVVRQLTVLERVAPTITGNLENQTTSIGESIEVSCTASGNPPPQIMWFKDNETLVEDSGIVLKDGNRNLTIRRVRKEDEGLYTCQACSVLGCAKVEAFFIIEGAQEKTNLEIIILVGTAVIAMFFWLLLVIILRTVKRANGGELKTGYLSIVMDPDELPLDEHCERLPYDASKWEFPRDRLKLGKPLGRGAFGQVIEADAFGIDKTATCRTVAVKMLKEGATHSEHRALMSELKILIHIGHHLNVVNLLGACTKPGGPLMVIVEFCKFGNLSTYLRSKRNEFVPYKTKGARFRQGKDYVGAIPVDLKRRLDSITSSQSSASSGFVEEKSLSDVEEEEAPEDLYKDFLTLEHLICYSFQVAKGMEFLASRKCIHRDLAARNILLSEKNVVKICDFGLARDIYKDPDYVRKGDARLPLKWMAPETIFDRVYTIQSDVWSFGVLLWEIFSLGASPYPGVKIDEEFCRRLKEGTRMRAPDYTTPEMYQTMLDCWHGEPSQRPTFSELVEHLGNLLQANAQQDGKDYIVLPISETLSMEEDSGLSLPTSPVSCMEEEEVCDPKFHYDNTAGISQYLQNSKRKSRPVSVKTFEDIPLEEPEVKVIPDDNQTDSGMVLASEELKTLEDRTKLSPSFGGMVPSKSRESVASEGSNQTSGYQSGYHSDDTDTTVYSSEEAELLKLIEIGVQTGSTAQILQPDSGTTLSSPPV

[7] = biological target: Tyrosine-protein kinase JAK2 (Homo sapiens, UniProt O60674); assay: Inhibition of JAK2 (unknown origin)
Histone deacetylase 1 = Histone deacetylase 1 (Homo sapiens, UniProt Q13547); assay: Inhibition of HDAC1 (unknown origin)
Chain of Histone deacetylase 1 (Q13547 whole entry): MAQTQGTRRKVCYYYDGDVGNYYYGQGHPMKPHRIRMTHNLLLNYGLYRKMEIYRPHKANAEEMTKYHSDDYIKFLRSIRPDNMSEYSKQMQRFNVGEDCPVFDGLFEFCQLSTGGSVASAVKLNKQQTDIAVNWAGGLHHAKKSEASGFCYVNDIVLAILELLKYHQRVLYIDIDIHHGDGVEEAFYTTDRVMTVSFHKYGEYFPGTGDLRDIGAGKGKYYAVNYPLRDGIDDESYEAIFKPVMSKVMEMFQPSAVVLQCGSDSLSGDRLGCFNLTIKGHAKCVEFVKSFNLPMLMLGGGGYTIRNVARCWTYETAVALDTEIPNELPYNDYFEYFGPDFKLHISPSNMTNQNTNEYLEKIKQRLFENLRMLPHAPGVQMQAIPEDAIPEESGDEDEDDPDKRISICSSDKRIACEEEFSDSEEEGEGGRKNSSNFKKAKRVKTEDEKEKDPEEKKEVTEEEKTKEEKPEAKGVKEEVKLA

[8] = biological target: T3, Protein deacetylase HDAC6 (Homo sapiens, UniProt Q9UBN7); assay: Inhibition of HDAC6 (unknown origin)
T3 sequence (Q9UBN7 whole entry): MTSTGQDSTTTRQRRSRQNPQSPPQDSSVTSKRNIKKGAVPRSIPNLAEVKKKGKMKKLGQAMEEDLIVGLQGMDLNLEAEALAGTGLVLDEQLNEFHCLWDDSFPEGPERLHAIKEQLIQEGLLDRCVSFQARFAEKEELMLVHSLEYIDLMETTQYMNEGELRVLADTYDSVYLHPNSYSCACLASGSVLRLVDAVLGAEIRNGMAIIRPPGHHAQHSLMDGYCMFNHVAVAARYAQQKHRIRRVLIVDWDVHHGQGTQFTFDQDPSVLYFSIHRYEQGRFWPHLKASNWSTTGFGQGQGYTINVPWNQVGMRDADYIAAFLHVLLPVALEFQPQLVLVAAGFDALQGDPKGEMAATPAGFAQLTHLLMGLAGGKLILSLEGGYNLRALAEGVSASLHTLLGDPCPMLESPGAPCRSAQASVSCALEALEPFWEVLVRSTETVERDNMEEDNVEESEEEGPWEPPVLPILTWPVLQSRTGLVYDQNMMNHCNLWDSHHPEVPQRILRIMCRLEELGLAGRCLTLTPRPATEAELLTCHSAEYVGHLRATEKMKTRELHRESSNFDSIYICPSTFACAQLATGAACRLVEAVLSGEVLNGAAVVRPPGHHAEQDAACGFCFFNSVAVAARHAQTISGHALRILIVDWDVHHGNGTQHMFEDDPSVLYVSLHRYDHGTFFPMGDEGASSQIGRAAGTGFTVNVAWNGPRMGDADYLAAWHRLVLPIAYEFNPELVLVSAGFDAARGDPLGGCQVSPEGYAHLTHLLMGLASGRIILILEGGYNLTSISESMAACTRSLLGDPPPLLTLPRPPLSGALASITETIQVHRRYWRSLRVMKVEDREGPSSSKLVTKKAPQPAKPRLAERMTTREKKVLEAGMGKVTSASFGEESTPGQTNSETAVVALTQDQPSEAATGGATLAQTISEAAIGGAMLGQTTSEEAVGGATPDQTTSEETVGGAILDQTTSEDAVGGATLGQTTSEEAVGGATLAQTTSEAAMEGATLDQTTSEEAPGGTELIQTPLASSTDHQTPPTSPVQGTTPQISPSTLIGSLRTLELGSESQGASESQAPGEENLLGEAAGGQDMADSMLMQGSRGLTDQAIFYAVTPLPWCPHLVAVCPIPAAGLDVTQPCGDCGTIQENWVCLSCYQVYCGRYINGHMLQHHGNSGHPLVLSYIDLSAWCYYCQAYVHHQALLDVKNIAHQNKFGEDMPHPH

Tubulin beta [9] = assay: Inhibition of beta-tubulin polymerization (unknown origin) by ELISA; assay type: protein assay, Homo sapiens
A-431 = assay: Cytotoxicity against human A-431 cells; assay type: functional, cell-based
NCI-H1975 = assay: Cytotoxicity against human NCI-H1975 cells; assay type: functional, cell-based
Tubulin beta [10] = assay: Inhibition of beta-tubulin polymerization in human HCT-116 cells using TMB substrate by ELISA; assay type: cell-based
[11] = biological target: T2, Vascular endothelial growth factor receptor 2; assay: Inhibition of VEGFR2 (unknown origin) by ELISA
DNA topoisomerase 2-beta = DNA topoisomerase 2-beta (Homo sapiens, UniProt Q02880); assay: Inhibition of human DNA topoisomerase 2-beta
Chain of DNA topoisomerase 2-beta (Q02880 whole entry): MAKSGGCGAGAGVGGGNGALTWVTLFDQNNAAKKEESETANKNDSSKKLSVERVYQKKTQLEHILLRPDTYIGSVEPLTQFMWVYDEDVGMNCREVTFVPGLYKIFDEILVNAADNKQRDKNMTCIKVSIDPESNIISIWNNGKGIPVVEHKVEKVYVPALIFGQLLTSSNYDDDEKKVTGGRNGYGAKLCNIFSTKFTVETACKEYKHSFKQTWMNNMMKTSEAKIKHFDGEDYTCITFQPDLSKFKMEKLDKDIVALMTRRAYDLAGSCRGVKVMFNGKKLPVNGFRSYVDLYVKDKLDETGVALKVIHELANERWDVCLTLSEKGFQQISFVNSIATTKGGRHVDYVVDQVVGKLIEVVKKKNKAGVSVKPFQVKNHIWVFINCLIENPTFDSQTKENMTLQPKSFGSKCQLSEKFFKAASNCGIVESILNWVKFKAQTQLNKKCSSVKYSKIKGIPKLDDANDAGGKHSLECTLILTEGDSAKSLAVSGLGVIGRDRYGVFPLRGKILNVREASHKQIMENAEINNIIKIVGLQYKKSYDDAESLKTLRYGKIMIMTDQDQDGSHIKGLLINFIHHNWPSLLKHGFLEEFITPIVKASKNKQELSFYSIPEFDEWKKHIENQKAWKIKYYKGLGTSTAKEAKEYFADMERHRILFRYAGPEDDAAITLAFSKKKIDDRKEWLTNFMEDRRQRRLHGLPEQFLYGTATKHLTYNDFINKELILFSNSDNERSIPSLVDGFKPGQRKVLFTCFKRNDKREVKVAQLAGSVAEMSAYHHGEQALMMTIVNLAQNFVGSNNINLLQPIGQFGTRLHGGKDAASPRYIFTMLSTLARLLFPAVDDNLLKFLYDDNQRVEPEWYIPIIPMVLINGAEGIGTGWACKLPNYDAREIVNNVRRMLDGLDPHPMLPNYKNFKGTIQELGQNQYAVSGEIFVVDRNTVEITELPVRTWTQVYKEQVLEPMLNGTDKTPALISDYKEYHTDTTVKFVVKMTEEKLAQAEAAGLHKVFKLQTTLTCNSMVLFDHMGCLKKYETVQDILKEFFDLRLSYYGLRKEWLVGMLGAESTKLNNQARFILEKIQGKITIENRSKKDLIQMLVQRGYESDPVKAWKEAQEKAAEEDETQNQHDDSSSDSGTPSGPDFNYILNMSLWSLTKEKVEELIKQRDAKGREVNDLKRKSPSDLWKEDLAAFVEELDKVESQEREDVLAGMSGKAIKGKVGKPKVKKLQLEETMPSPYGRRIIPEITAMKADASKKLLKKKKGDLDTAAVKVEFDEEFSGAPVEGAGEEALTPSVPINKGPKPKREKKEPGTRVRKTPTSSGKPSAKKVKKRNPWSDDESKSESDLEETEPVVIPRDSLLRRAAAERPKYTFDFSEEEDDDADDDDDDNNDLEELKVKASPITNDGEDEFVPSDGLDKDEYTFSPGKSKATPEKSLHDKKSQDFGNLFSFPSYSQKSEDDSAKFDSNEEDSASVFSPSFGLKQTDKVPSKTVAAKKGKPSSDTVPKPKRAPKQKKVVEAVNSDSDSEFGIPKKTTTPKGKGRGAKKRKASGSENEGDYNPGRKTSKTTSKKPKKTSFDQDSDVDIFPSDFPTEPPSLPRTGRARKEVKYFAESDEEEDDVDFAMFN

[12] = biological target: T1, Epidermal growth factor receptor; assay: Inhibition of EGFR (unknown origin) by ELISA
[13] = Inhibition of sheep brain tubulin polymerization by DAPI staining based fluorescence analysis; assay type: tissue-based, Ovis aries
[14] = biological target: [Pyruvate dehydrogenase (acetyl-transferring)] kinase isozyme 1, mitochondrial (Homo sapiens, UniProt Q15118); assay: Inhibition of human recombinant PDHK1 using KKKYHGHSMSDPGVSYRT as substrate incubated for 40 mins in presence of Mg/ATP mix by [gamma-32P]-ATP based scintillation counting analysis
Chain of [Pyruvate dehydrogenase (acetyl-transferring)] kinase isozyme 1, mitochondrial (Q15118 whole entry): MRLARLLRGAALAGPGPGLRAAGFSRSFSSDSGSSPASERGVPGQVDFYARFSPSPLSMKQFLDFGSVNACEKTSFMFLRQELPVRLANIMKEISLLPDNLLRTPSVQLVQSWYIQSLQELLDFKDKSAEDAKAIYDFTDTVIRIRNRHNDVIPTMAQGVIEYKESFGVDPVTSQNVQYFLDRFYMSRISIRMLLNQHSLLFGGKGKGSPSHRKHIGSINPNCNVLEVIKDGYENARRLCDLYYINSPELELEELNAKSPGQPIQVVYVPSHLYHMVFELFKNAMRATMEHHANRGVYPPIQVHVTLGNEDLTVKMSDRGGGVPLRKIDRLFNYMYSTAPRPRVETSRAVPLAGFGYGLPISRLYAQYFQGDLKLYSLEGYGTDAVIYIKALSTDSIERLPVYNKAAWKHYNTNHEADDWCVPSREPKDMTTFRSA

[15] = Cytotoxicity against human U87 cells; assay type: functional, cell-based, U-87MG ATCC; details: U-87 MG
PANC-1 = assay: Antiproliferative activity against human PANC-1 cells assessed as inhibition of cell growth incubated for 24 to 72 hrs by MTT assay; assay type: functional, cell-based
[16] = Inhibition of tyrosine kinase in human PANC-1 cells; assay type: cell-based
DU-145 = assay: Antiproliferative activity against human DU-145 cells assessed as inhibition of cell growth incubated for 24 to 72 hrs by MTT assay; assay type: functional, cell-based
BGC-823 = assay: Antiproliferative activity against human BGC-823 cells assessed as inhibition of cell growth incubated for 24 to 72 hrs by MTT assay; assay type: functional, cell-based
CAPAN-1 = assay: Antiproliferative activity against human CAPAN-1 cells assessed as inhibition of cell growth incubated for 24 to 72 hrs by MTT assay; assay type: functional, cell-based
T-24 = assay: Antiproliferative activity against human T24 cells assessed as inhibition of cell growth incubated for 24 to 72 hrs by MTT assay; assay type: functional, cell-based
[17] = biological target: DNA topoisomerase 2-alpha (Homo sapiens, UniProt P11388); assay: Inhibition of human topoisomerase 2 alpha assessed as relaxation of supercoiled plasmid pBR322 DNA incubated for 30 mins by ethidium bromide staining based agarose gel electrophoresis
[18] = Inhibition of tyrosine kinase in human CAPAN-1 cells; assay type: cell-based
HGC-27 = assay: Antiproliferative activity against human HGC-27 cells assessed as inhibition of cell growth incubated for 24 to 72 hrs by MTT assay; assay type: functional, cell-based

T1 sequence (P00533 whole entry): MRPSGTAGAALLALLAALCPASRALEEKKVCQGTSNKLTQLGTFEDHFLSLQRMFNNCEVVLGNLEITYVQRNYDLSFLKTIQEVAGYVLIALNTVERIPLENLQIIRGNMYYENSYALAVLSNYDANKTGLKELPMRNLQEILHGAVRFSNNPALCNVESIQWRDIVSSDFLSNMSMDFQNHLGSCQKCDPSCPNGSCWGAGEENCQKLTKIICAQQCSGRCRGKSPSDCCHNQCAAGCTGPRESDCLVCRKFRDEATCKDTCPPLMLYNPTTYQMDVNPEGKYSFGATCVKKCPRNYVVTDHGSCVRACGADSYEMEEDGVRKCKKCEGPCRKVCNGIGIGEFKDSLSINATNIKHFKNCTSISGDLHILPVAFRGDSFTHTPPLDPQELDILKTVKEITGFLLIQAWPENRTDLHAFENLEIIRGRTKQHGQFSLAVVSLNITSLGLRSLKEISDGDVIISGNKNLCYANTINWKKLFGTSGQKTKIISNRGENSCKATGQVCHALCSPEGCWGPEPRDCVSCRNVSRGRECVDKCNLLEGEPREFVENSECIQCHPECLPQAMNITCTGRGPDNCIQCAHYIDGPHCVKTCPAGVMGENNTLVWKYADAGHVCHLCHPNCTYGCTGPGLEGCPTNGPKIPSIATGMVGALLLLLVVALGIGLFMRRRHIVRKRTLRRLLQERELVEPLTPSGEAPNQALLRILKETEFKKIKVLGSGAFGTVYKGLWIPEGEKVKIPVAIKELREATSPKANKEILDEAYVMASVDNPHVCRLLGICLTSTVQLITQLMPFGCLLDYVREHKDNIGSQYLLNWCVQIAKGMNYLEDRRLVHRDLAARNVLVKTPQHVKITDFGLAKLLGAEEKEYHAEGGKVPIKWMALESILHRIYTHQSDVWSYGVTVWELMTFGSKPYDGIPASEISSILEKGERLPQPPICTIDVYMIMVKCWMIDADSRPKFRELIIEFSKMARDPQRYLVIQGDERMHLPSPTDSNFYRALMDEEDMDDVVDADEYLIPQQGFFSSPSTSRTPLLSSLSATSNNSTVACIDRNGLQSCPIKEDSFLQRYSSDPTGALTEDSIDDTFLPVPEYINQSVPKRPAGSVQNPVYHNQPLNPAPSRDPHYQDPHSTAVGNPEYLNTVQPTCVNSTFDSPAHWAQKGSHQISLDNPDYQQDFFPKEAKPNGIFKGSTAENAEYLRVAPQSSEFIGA

CC(=O)O[C@H]1CC[C@]2(C)[C@H]3CC=C4[C@@H]5CC(C)(C)CC[C@]5(C(=O)OCCCC[N+](=O)[O-])CC[C@@]4(C)[C@]3(C)CC[C@H]2C1(C)CO (stereo partly drawn)
pIC50 [1]: 8.00

COc1ccc(S(=O)(=O)N2CCc3cccc(NC=O)c32)cc1
pIC50 (K562 [2]): 6.41 | pIC50 (K562 [3]): 6.39

Fc1ccc(C2=Nc3ccc(F)cc3CN2/N=C\c2ccccc2)cc1
pIC50 (Tubulin): 5.03 | pIC50 [4]: 7.12 | pIC50 (MDA-MB-231): 6.55 | pIC50 (MCF7): 6.46

COc1ccc(NC(=O)c2c(Nc3ccccc3)sc(C#N)c2NC(=O)CNc2ccc(Cl)cc2)cc1
inhibition [5]: 73% | pIC50 [6]: 6.23

Cc1cc(NC2=NC(=O)/C(=C/c3c4ccccc4cc4ccccc34)S2)no1
pIC50 [1]: 7.35

CC(=O)Nc1ccc(-c2ccnc(NCc3ccc(OCCCCCC(=O)NO)cc3)n2)cc1
pIC50 [7]: 8.59 | pIC50 (Histone deacetylase 1): 6.51 | pIC50 [8]: 7.70

O=C(Nc1ccccc1C(=O)N/N=C/c1ccc(O)cc1O)c1ccco1
IC50 (Tubulin beta [9]): 108.4 nM

O=C(CCCCCn1cc(-c2ccc3ncnc(Nc4ccc(Br)cc4F)c3c2)nn1)NO
pIC50 [1]: 7.99 | pIC50 (Histone deacetylase 1): 8.96 | pIC50 [8]: 8.37 | pIC50 (A-431): 6.59 | pIC50 (NCI-H1975): 6.04

CCc1nnc2c(Nc3ccc(C(=O)/C=C/c4cc(OC)c(OC)c(OC)c4)cc3)nc3ccccc3n12
pIC50 [4]: 7.03 | IC50 (Tubulin beta [10]): 8400 nM

Cc1ccc2c(=O)n(Cc3ccccc3)c(SCc3cn(-c4ccc(C(=O)O)cc4)nn3)nc2c1
pIC50 [11]: 6.90 | pIC50 (DNA topoisomerase 2-beta): 7.59 | pIC50 [12]: 7.41

COc1ccc(NC(=O)c2c(Nc3ccccc3)sc(C(=O)N/N=C/c3ccc(O)c(O)c3)c2NC(C)=O)cc1
inhibition [5]: 86% | pIC50 [6]: 5.89

COc1ccc(C(=O)c2cc(OC)c(OC)c(OC)c2)cc1OC(=O)C(Cl)Cl
pIC50 [13]: 6.59 | pIC50 [14]: 4.92

C=C[C@]1(C)CC[C@@H](C(=C)COC(=O)CCC(=O)CCCOc2no[n+]([O-])c2S(=O)(=O)c2ccccc2)C[C@H]1C(=C)C
pIC50 [15]: 8.70

CN1CCN(c2cc3c(cc2F)C(=O)C(/C=C2\CN(C4CC4)c4cc(N5CCNCC5)c(F)cc4C2=O)CN3C2CC2)CC1 (stereo not drawn)
pIC50 (PANC-1): 6.51 | pIC50 [16]: 5.51 | pIC50 (DU-145): 6.51 | pIC50 (BGC-823): 6.51 | pIC50 (CAPAN-1): 6.51 | pIC50 (T-24): 6.51 | pIC50 [17]: 5.80 | pIC50 [18]: 6.19 | pIC50 (HGC-27): 6.51
